{"source": "patent US20250312365A1", "about": "“METHODS FOR INHIBITION OF SQUAMOUS CARCINOMA CELLS USING CERAMIDE MODULATORS” (The Trustees of Indiana University, priority 2024, published 2025)", "key": {"OECM1 cells": {"tested_on": "OECM1 cells", "test": "Transwell (insert) transmigration assay, OECM1", "assay_type": "cell-based, human", "details": "1 μg/ml, compared to sham control", "method": "A scratch wound healing assay was performed according to known methods to assess the effects of PGDHC on the migration of human oral squamous cell carcinoma cells. […] The scratch wound healing assay was validated with a transwell migration assay."}, "MMP2": {"tested_on": "MMP2", "test": "MMP2 mRNA expression in OECM1 cells", "assay_type": "cell-based, human", "method": "(§1) NF-kB, MMP-2, ADAM-17, and IL6 are implicated in the degradation of the expression of genes involved in the cell basement membrane and extracellular matrix of oral squamous cell carcinoma. Accordingly, the expression of NFkB, MMP2, ADAM17, and IL6 in OECM1 cells following exposure to 0.1 μg/ml PGDHC and 1 μg/ml PGDHC was determined.\n(§2) Sphingosine-1-phosphate (S1P) sphingolipid plays an essential role in the survival, migration, and degradation of the basement membrane and extracellular matrix of oral squamous cell carcinoma (Yura et al., Cancers (Basel). 2020 August; 12(8): 2062). To determine whether PGDHC can inhibit such properties, the combined effects of PGDHC and S1P on OECM1 gene expression was tested in vitro."}, "[1]": {"tested_on": "healthy epithelial OBA9 cells", "test": "Untargeted metabolomic pathway analysis (LC/MS) in healthy OBA9 cells", "assay_type": "cell-based, human", "details": "1 μg/ml for 6 h", "excerpt": "Based on this analysis, at least 5 different cell survival metabolomic pathways, underlined in red were diminished in OSCC (OECM1 and SCC9), but not in healthy epithelial OBA9 cells in response to PGDHC. The 5 pathways were folate metabolism, arginine and proline metabolism, glycine and serine metabolism, de novo triacylglycerol biosynthesis, and mitrochondrial electron transport chain.\nThe Warburg effect is a metabolic phenomenon observed in many cancer cells, where the cells preferentially use glycolysis metabolism to produce energy instead of oxidative phosphorylation. The Warburg effect is a hallmark of rapid cancer cell growth. Therefore, we evaluated whether PGDHC altered Warburg effect in OSCM1 and SCC9 oral squamous cell carcinoma cells (FIG. 17A), but not healthy epithelial OBA9 cells (FIG. 17B), in vitro. Cells were stimulated with PGDHC (1 μg/ml) for 6 h and the untargeted metabolomic analysis was performed using LC/MS mass-spectrometry. Polar and lipid metabolites were analyzed with HILIC/MS and LC/MS, respectively. […]\nBased upon the impact of PGDHC on the Warburg effect in OSCC cells, we further analyzed the levels of cancer-survival metabolites adenosine triphosphate (ATP) and glucose in the OECM1, SCC9, and OBA9 cells described in Example 11. […]"}, "IL6": {"tested_on": "IL6", "test": "IL6 mRNA expression in OECM1 cells", "assay_type": "cell-based, human", "method": "as §1, §2"}, "[2]": {"tested_on": "human gingival squamous carcinoma cells (OECM1)", "test": "Cell viability/proliferation assay (WST-1) in OECM1 cells", "assay_type": "cell-based", "details": "each tested concentration (0.1 μg/ml and 1 μg/ml); WST-1", "excerpt": "In specific examples, colorimetric assays can be used to assess cellular viability and proliferation of cell cultures, such as MTT, WST-1, and resazurin assays. See, e.g., Präbst et al., Methods Mol Biol. 2017:1601:1-17.\nVarious cell lines were exposed to PGDHC, including human gingival squamous carcinoma cells (OECM1), tongue squamous carcinoma cells (SCC4, SCC9), and healthy human gingival epithelial control cells (OBA9) in vitro.\n(§3) To elucidate the effects of C16:0 and dh-C16:0 on oral squamous cell carcinoma, the ability of exogenous C16:0 and dh-C16:0 to modulate proliferation and ceramidase expression in OECM1 cells was determined. […] In contrast, no effect of C16:0 on ASAH1 and ACER2 mRNA expressions.\nLCL521 is a dose-dependent acid ceramidase inhibitor. Comparison of the concentration-dependent effects of an acid ceramidase inhibitor, LCL521 (MedChemExpress®), and the bacterial-isolated a15:0-15:0PE phospholipid on the viability of healthy human epithelial, OBA9, and oral squamous cancer cell lines, OECM1 and SCC9, in vitro was evaluated. […] (FIG. 15A). […] (FIG. 15B)."}, "ACER2": {"tested_on": "ACER2", "test": "ACER2 mRNA expression in OECM1 cells", "assay_type": "cell-based, human", "details": "0.1 or 1 μg/ml of PGDHC", "excerpt": "Exemplary ceramidase genes, the expression of which can be measured to determine upregulation, include but are not limited to ASAH1, ACER2, and ACER3. A determination of ceramidase gene expression can be made according to methods available to one of skill in the art. For example, Yamada et al., J Cell Mol Med. 2023 May;27(9):1290-1295 and Kyriakou et al., Int. J. Mol. Sci. 2020, 21(5):1607 describes measuring the mRNA levels of ceramidases by RNA extraction and RT-PCR.\nTo test this hypothesis, it was first determined whether artificially elevated intracellular concentration of ceramide species affect the expression of acid/ASAH1, neutral/ASAH2, and alkaline1-3/ACER1-3 ceramidases in oral squamous cell carcinoma cells using C6-ceramide. Applicant previously reported that C6-ceramide serves as a positive control for PGDHC-mediated inflammation (Kanzaki et al., Biochim Biophys Acta Mol Cell Biol Lipids. 2017 May;1862(5):452-462) and promotes the intracellular accumulation of ceramide in cancer cells. See, e.g., Zhang et al., Front Plant Sci. 2020 Feb. 26:11:145, Zhai et al., Biochem Biophys Res Commun. 2015 December;468(1-2):274-80, Wilhelm et al., Cancers (Basel). 2021 Jan. 13;13(2):270, and Chapman et al., Biochem Pharmacol. 2010 Aug. 1;80(3):308-15.\nNext, the effect of PGDHC on ceramidase gene expression was determined. OECM1 and SCC4 cells were exposed to 0.1 or 1 μg/ml of PGDHC. The mRNA levels of ceramidases were then measured following PGDHC exposure. PGDHC inhibited the expression of ASAH1 and ACER2 mRNAs in OECM1 (FIG. 8). […] See, e.g., Vijayan et al., J Adv Res. 2023 Dec. 21:S2090-1232(23)00403-4, Doan et al., Oncotarget. 2017 Nov. 7;8(68):112662-112674., Lai et al., Sci Rep. 2021 May 27;11(1):11221, Liu et al., Cancer Sci. 2020 July;111(7):2259-2274., and Liu et al., Front Genet. 2023 Mar. 1:14:1148437.\nas §3"}}}
{"substance": "phosphoglycerol dihydroceramide [PGDHC]", "values": [{"measurement": "number of transmigrated OECM1 cells", "setting": "OECM1 cells", "result": "significantly reduced"}, {"measurement": "expression of MMP2 mRNA in OECM1 cells", "setting": "MMP2; 1 μg/ml", "result": "significantly inhibited"}, {"measurement": "MMP2 mRNA levels in OECM1 cells exposed to S1P", "setting": "MMP2; in combination with S1P", "result": "a significant effect was not observed"}, {"measurement": "Warburg effect in healthy OBA9 cells", "setting": "[1]", "result": "no effect"}, {"measurement": "expression of IL6 mRNA in OECM1 cells", "setting": "IL6; 1 μg/ml", "result": "significantly inhibited"}, {"measurement": "expression of IL6 mRNA in OECM1 cells exposed to S1P", "setting": "IL6; in combination with S1P", "result": "significantly inhibited"}, {"measurement": "viability of OECM1 cells", "setting": "[2]", "result": "significantly inhibited"}, {"measurement": "expression of ACER2 mRNA in OECM1", "setting": "ACER2", "result": "inhibited"}]}
